Assay results taken from ChEMBL document CHEMBL5252666, “Discovery of CVN636: A Highly Potent, Selective, and CNS Penetrant mGluR7 Allosteric Agonist” (ACS Med Chem Lett, 2023).
Active and inactive are the calls of the source. The rule behind the calls is not given here.

Key:
[1] = target: T1, Metabotropic glutamate receptor 7 (Homo sapiens, UniProt Q14831); assay: (§1) Agonist activity at human mGluR7 expressed in CHO cells expressing CRE-Luc reporter gene assessed as reduction in forskolin-stimulated cAMP production preincubated for 15 mins followed by forskolin stimulation and measured after 5 hrs by luminescence based Steady glo assay; assay type: cell-based
[2] = target: T1, Metabotropic glutamate receptor 7; assay: as §1, with “production by measuring maximum efficacy” for “production”, “assay relative to control” for “assay”; assay type: cell-based; conditions: filed as agonist, time 315.0 min
[3] = target: T1, Metabotropic glutamate receptor 7; assay: Competitive binding affinity to mGluR7 (unknown origin) assessed as rightward shift in forskolin-induced cAMP production level by measuring fold change preincubated for 15 mins in the presence of LY341495 followed by forskolin stimulation and measured after 5 hrs by luminescence based steady glo assay; conditions: filed as agonist, time 315.0 min
[4] = Stability in human liver microsomes assessed as intrinsic clearance preincubated for 60 mins followed by NADPH addition and measured upto 60 mins by LC-MS/MS analysis; assay type: ADME, Microsome; conditions: time < 120 min, read-out: CLH
[5] = Stability in rat liver microsomes assessed as intrinsic clearance preincubated for 60 mins followed by NADPH addition and measured upto 60 mins by LC-MS/MS analysis; assay type: ADME, Microsome; conditions: time < 120 min, read-out: CLH
[6] = Half-life in Sprague-Dawley rat at 3 mg/kg, po measured after 24 hrs by LC-MS/MS analysis; assay type: ADME, organism-based; conditions: in vivo
[7] = target: Metabotropic glutamate receptor 7 (Mus musculus, UniProt Q68ED2); assay: Agonist activity at mouse mGluR7 expressed in CHO cells expressing CRE-Luc reporter gene assessed as reduction in forskolin-stimulated cAMP production preincubated for 15 mins followed by forskolin stimulation and measured after 5 hrs by luminescence based Steady glo assay; assay type: cell-based
[8] = target: T1, Metabotropic glutamate receptor 7; assay: Allosteric agonist activity at mGluR7 (unknown origin) assessed as reduction in forskolin-induced cAMP production by measuring fold change in EC50 preincubated for 15 mins in the presence of LY341495 followed by forskolin stimulation and measured after 5 hrs by luminescence based steady glo assay; conditions: filed as agonist, time 315.0 min
[9] = Oral bioavailability in Sprague-Dawley rat at 3 mg/kg measured after 24 hrs by LC-MS/MS analysis; assay type: ADME, organism-based; conditions: in vivo
[10] = target: T1, Metabotropic glutamate receptor 7; assay: Agonist activity at human mGluR7 expressed in CHO cells assessed as change in extracellular impedance incubated for 40 mins by CellKey impedance assay; assay type: cell-based; conditions: filed as agonist
[11] = Volume of distribution at steady state in Sprague-Dawley rat at 0.5 mg/kg, iv measured after 24 hrs by LC-MS/MS analysis; assay type: ADME, organism-based; conditions: in vivo
[12] = Ratio of drug concentration in Sprague-Dawley rat brain to plasma at 3 mg/kg, po measured after 4 hrs by LC-MS/MS analysis; assay type: ADME, organism-based
Rattus norvegicus [13] = assay: In vivo agonist activity in alcohol preferring Marchigian-Sardinian rat assessed as reduction in alcohol self-administration at 3 mg/kg, po administered for 1 hrs relative to control; assay type: functional; design: scale not given: the % may be the effect or the level left
Rattus norvegicus [14] = assay: In vivo agonist activity in alcohol preferring Marchigian-Sardinian rat assessed as reduction in alcohol self-administration by measuring number of response at 3 mg/kg, po administered for 1 hrs; assay type: functional
[15] = target: Metabotropic glutamate receptor 5 (Homo sapiens) (UniProt P41594); assay: Agonist activity at mGluR5 (unknown origin) at 1 to 10 uM by Galphaqi5 calcium flux assay; conditions: dose 1-10 µM
[16] = Unbound fraction in rat brain incubated for 6 hrs by LC-MS/MS based rapid equilibrium dialysis; assay type: ADME, tissue-based
[17] = Efflux ratio of apparent permeability in MDCK-MDR1 cells; assay type: ADME, cell-based, Canis lupus familiaris; conditions: dog
[18] = target: Metabotropic glutamate receptor 3 (Homo sapiens) (UniProt Q14832); assay: Agonist activity at mGluR3 (unknown origin) at 1 to 10 uM by Galphaqi5 calcium flux assay; conditions: dose 1-10 µM
Rattus norvegicus [19] = assay: In vivo agonist activity in po dosed alcohol preferring Marchigian-Sardinian rat assessed as reduction in alcohol self-administration measured after 1 hrs; assay type: functional, organism-based; conditions: dose 0.3-3 mg/kg
[20] = target: Metabotropic glutamate receptor 4 (Homo sapiens) (UniProt Q14833); assay: Agonist activity at human mGluR4 expressed in CHO cells assessed as reduction in forskolin-induced cAMP production incubated for 1 hrs by HTRF analysis; assay type: cell-based
[21] = target: Metabotropic glutamate receptor 2 (Homo sapiens) (UniProt Q14416); assay: Agonist activity at mGluR2 (unknown origin) at 1 to 10 uM by cAMP assay; conditions: dose 1-10 µM
[22] = Tmax in Sprague-Dawley rat at 3 mg/kg, po measured after 24 hrs by LC-MS/MS analysis; assay type: ADME, organism-based; conditions: in vivo
[23] = AUC(0 to infinity) in Sprague-Dawley rat at 3 mg/kg, po measured after 24 hrs by LC-MS/MS analysis; assay type: ADME, organism-based; design: time 24 hrs, dose 3 mg/kg, route po; conditions: in vivo
[24] = Stability in cryopreserved rat hepatocytes assessed as clearance measured for 120 mins by LC-MS/MS analysis; assay type: ADME, cell-based, Hepatocyte; conditions: read-out: CLH
[25] = target: Metabotropic glutamate receptor 8 (Homo sapiens) (UniProt O00222); assay: Agonist activity at human mGluR8 expressed in CHO cells assessed as reduction in forskolin-induced cAMP production incubated for 1 hrs by HTRF analysis; assay type: cell-based
[26] = Apparent permeability from apical to basolateral side in MDCK-MDR1 cells; assay type: ADME, cell-based, Canis lupus familiaris; conditions: dog
[27] = target: Metabotropic glutamate receptor 6 (Homo sapiens) (UniProt O15303); assay: Agonist activity at mGluR6 (unknown origin) at 1 to 10 uM by cAMP assay; conditions: dose 1-10 µM
[28] = Ratio of unbound brain to plasma concentration in Sprague-Dawley rat at 3 mg/kg, po measured after 4 hrs by LC-MS/MS analysis; assay type: ADME, organism-based
[29] = Cmax in Sprague-Dawley rat at 3 mg/kg, po measured after 24 hrs by LC-MS/MS analysis; assay type: ADME, organism-based; design: dose 3 mg/kg, time 24 hrs, route po; conditions: in vivo
[30] = target: Metabotropic glutamate receptor 1 (Homo sapiens) (UniProt Q13255); assay: Agonist activity at mGluR1 (unknown origin) at 1 to 10 uM by Galphaqi5 calcium flux assay; conditions: dose 1-10 µM
[31] = target: T1, Metabotropic glutamate receptor 7; assay: Desensitization at human mGluR7 expressed in CHO cells assessed as reduction in tool agonist response at EC80 concentration preincubated for 1 hrs followed by compound replacement with assay buffer and measured 1 hrs after tool agonist addition by CellKey impedance assay relative to control; assay type: cell-based
[32] = Unbound fraction in rat plasma incubated for 6 hrs by LC-MS/MS based rapid equilibrium dialysis; assay type: ADME, cell-free
[33] = target: T1, Metabotropic glutamate receptor 7; assay: Agonist activity at human mGluR7b expressed in CHO cells assessed as inhibition of forskolin-stimulated cAMP accumulation; assay type: cell-based
[34] = target: T1, Metabotropic glutamate receptor 7; assay: (§2) Positive allosteric modulation of mGluR7 (unknown origin) assessed as change in forskolin-induced cAMP production by measuring fold change in EC50 shift preincubated with compound for 15 mins in the presence of LY341495 followed by forskolin stimulation and measured after 5 hrs by luminescence based steady glo assay; conditions: filed as positive allosteric modulator, time 315.0 min
[35] = target: T1, Metabotropic glutamate receptor 7; assay: as §2, with “reduction” for “fold change”, “maximum response” for “EC50 shift”; design: scale not given: the % may be the effect or the level left; conditions: filed as positive allosteric modulator, time 315.0 min
[36] = target: Histamine H1 receptor (Homo sapiens) (UniProt P35367); assay: Binding affinity to human H1 receptor at 10 uM
[37] = target: T1, Metabotropic glutamate receptor 7; assay: Desensitization at human mGluR7 expressed in CHO cells assessed as reduction in tool agonist response at 10 uM preincubated for 1 hrs followed by compound replacement with assay buffer and measured 1 hrs after tool agonist addition by CellKey impedance assay relative to control; assay type: cell-based; design: scale not given: the % may be the effect or the level left
[38] = target: Sodium-dependent noradrenaline transporter (Homo sapiens) (UniProt P23975); assay: Binding affinity to human norepinephrine transporter at 10 uM
[39] = target: Adrenergic receptor alpha-1 (Rattus norvegicus) (UniProt P15823+P23944+P43140); assay: Binding affinity to rat alpha 1 adrenergic receptor at 10 uM; assay type: protein assay

T1 sequence (Q14831 whole entry): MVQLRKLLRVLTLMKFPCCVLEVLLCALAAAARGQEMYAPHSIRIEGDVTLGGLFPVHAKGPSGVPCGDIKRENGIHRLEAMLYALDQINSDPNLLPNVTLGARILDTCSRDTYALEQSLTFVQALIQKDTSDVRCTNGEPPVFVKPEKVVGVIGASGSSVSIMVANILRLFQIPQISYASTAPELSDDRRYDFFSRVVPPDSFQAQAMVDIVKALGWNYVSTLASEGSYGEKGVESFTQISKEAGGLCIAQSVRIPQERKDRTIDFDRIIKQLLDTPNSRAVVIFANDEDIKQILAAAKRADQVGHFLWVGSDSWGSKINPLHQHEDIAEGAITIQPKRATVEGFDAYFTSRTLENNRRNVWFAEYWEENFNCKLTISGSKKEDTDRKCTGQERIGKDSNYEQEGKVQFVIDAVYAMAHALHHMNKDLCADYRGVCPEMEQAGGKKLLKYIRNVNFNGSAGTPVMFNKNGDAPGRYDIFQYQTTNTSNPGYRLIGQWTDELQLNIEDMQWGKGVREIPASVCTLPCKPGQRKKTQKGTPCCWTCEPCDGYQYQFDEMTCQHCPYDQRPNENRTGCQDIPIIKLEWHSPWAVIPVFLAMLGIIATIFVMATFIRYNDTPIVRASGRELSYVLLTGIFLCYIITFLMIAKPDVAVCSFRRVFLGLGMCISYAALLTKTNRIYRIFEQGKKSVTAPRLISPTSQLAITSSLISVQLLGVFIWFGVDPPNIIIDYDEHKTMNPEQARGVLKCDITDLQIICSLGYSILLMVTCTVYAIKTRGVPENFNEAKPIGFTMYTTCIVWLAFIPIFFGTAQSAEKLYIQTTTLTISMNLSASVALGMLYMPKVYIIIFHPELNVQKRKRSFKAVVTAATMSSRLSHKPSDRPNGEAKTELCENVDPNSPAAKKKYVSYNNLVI
Chain of Sodium-dependent noradrenaline transporter (Homo sapiens) (P23975 whole entry): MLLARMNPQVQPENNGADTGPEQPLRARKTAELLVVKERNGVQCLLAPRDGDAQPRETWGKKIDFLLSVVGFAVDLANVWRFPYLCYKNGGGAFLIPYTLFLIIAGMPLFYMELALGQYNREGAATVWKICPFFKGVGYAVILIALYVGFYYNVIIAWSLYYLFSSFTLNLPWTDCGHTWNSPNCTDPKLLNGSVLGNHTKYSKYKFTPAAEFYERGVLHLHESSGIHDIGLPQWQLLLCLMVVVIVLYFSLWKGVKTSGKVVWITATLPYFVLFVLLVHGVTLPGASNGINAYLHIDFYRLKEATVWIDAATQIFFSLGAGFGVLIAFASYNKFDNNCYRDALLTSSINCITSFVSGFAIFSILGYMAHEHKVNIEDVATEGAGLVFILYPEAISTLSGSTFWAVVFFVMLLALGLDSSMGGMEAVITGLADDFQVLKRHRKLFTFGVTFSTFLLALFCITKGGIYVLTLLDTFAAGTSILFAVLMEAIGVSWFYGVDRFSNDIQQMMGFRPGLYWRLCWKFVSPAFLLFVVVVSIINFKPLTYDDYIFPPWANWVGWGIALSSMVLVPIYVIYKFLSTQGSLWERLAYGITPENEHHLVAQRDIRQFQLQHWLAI
Chain of Metabotropic glutamate receptor 4 (Homo sapiens) (Q14833 whole entry): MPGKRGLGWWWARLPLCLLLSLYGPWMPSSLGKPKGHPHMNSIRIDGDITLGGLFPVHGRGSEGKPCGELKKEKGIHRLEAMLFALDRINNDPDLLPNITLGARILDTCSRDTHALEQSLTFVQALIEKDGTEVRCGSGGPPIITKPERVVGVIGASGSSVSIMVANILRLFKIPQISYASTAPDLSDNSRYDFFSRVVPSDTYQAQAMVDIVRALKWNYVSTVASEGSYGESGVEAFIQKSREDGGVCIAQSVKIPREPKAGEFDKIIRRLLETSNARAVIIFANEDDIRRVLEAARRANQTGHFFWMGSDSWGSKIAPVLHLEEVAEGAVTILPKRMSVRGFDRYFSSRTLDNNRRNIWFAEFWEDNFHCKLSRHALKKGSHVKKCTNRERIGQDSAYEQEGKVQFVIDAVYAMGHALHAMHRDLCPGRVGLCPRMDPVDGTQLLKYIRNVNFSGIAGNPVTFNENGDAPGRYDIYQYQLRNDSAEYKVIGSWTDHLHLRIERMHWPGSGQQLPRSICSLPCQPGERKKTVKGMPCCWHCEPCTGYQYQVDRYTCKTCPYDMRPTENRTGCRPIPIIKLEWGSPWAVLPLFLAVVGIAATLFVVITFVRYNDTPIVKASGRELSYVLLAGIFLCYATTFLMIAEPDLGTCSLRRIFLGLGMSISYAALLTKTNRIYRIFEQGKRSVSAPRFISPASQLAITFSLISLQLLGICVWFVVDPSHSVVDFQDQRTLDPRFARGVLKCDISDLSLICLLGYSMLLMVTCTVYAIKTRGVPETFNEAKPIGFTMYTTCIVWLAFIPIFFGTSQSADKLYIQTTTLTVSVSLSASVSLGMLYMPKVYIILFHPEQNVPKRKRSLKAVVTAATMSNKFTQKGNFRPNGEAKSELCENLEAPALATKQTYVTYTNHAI
Chain of Metabotropic glutamate receptor 8 (Homo sapiens) (O00222 whole entry): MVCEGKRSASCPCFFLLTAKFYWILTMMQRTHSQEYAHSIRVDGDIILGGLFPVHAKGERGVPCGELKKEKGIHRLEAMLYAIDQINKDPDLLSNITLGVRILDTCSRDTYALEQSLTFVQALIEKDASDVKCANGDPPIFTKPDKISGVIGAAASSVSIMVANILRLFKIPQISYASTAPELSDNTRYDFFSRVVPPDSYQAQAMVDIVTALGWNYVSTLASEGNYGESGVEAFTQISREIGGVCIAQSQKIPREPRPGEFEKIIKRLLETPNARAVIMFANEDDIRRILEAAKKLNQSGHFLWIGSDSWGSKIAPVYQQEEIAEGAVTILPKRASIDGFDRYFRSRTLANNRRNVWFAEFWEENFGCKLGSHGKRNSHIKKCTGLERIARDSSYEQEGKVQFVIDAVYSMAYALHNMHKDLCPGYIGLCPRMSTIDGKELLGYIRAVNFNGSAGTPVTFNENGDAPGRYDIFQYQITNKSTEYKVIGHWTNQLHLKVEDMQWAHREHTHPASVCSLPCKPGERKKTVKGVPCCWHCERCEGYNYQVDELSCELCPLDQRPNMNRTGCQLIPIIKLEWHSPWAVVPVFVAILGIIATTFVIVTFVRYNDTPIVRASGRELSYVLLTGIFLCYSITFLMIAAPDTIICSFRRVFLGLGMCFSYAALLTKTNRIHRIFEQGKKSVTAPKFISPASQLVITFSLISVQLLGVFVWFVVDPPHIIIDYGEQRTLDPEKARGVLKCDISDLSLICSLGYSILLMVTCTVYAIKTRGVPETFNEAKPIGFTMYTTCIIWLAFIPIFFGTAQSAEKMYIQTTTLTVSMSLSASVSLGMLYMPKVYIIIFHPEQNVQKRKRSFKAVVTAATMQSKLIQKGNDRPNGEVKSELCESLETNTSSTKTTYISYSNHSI
Chain of Metabotropic glutamate receptor 1 (Homo sapiens) (Q13255 19-1194 limits assumed): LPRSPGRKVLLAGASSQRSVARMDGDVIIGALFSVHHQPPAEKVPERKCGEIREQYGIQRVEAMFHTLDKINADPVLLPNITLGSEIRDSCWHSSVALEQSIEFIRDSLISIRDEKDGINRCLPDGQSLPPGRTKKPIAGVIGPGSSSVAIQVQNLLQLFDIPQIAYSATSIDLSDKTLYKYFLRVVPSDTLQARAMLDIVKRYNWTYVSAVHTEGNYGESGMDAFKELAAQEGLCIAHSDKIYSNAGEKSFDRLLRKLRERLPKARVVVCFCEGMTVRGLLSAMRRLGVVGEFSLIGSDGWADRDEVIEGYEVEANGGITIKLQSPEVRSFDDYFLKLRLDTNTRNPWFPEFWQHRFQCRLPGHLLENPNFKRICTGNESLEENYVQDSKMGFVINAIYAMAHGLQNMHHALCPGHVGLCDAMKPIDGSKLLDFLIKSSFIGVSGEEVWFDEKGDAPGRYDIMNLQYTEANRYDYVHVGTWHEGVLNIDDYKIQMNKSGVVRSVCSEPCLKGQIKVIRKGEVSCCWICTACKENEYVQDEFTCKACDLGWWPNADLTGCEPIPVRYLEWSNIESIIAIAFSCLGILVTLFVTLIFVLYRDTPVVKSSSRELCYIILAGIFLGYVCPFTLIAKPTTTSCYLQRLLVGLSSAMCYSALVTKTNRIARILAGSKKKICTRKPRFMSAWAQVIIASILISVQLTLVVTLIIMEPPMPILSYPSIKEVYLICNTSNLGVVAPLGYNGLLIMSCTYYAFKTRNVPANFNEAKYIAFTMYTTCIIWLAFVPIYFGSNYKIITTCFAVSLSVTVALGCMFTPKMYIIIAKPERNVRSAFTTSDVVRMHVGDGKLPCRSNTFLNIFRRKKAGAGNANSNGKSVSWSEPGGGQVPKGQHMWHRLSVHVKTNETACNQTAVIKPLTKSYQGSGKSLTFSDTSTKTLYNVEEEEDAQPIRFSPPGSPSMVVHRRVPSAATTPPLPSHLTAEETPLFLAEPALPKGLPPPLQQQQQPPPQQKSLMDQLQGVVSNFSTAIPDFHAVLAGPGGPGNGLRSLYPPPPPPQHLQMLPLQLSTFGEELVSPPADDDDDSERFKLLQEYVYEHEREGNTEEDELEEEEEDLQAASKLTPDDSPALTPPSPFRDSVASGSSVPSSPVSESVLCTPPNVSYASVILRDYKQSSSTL
Chain of Histamine H1 receptor (Homo sapiens) (P35367 whole entry): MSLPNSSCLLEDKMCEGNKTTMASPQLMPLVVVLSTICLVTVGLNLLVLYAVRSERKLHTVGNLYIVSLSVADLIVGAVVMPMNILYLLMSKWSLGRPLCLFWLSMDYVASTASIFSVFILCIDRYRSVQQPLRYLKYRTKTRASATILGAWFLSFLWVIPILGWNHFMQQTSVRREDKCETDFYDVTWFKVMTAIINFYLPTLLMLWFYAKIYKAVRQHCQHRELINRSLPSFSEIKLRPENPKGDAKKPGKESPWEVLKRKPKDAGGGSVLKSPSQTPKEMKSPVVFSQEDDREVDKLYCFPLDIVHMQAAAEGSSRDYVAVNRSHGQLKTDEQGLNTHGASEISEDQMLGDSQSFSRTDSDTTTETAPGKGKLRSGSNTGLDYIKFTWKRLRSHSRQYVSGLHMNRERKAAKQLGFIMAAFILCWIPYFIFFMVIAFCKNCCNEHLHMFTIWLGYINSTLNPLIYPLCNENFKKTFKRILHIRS
Chain of Metabotropic glutamate receptor 7 (Mus musculus, UniProt Q68ED2) (Q68ED2 whole entry): as the sequence (Q14831 whole entry) above, with R5G, A27V, S488T, A520P, D578N counted along it

`C[C@H](C(=O)NC1Cc2ccccc2C1)c1ccccc1` gave an EC50 [1] of 113 nM and an Emax [2] of 95%.
Work on `N[C@@H](CCP(=O)(O)O)C(=O)O` yielded a fold change (FC) [3] of 13.
In the case of `O=C(Cc1ccc(Cl)cc1)NC1Cc2ccccc2C1`, the EC50 [1] is reported as 156 nM and the Emax [2] is reported as 71%.
Work on `C[C@H](C(=O)N[C@@H]1CCc2ccccc2[C@H]1S(C)(=O)=O)c1ccc(F)cc1` yielded an Emax [2] of 95%, a microsomal CLint [4] of 2 µL/min/mg and a microsomal CLint [5] of 55 µL/min/mg.
In the case of `C[C@@H](C(=O)NC1Cc2ccccc2C1)c1ccccc1`, the EC50 [1] is reported as 1340 nM and the Emax [2] is reported as 69%.
`C[C@H](C(=O)N[C@H]1COc2ccccc2[C@@H]1S(C)(=O)=O)c1ccc(F)cc1` gave a t1/2 [6] of 2.25 h, an EC50 [7] of 2 nM and a fold change (FC) [8] of 2. The F [9] was 24%, the Activity [10] was “Active” and the Vdss [11] was 1.49 L/kg. It also gave a BPR [12] of 0.56, an Activity (Rattus norvegicus [13]) of 25% and an Activity (Rattus norvegicus [14]) of 40.9. The EC50 [1] was 7 nM, the Emax [2] was 97% and the Activity [15] was “inactive”. For the same compound, the Fu [16] was 0.227, the Ratio [17] was 0.5 and the Activity [18] was “inactive”. For the same compound, the Activity (Rattus norvegicus [19]) was “Dose-Dependent Effect”, the Activity [20] was “inactive” and the Activity [21] was “inactive”. For the same compound, the Tmax [22] was 0.67 h, the AUC [23] was 1404 ng·h/mL and the CLint scaled [24] was 145 mL/min/kg. The Activity [25] was “inactive”, the Papp [26] was 16.2 ×10⁻⁶ cm/s and the Activity [27] was “inactive”. For the same compound, the “K(p,uu,brain)” value [28] was 0.45, the Cmax [29] was 1240 nM and the Activity [30] was “inactive”. For the same compound, the Activity [31] was “inactive” and the Fu [32] was 0.283.
For `CNC[C@@H](OCC(=O)N1CCCc2ccccc21)c1ccccc1`, the EC50 [33] was 110 nM.
Compound `C[C@H](C(=O)NC1Cc2ccccc2C1)c1ccc(F)cc1` has an EC50 [1] of 55 nM and an Emax [2] of 96%.
`O=C(Nc1ccc(Oc2ccc(Cl)cn2)c(Cl)c1)c1ccccn1` showed a fold change (FC) [34] of 2 and an Activity [35] of 43%.
For `c1ccc(C(NCCNC(c2ccccc2)c2ccccc2)c2ccccc2)cc1`, the Activity [36] was “Active”, the Activity [37] was 74% and the EC50 [33] was 64 nM. The fold change (FC) [8] was 2, the Activity [38] was “Active” and the Activity [10] was “Active”. For the same compound, the Activity [39] was “Active”.
With `N[C@@H](CCC(=O)O)C(=O)O` the Activity [10] was “Active”.
